These compounds were tested on age unsynchronized Ditylenchus destructor (assay: Motility on WMicrotracker ONE). Conditions: 10 µM group; initial (prior to the treatment).
Assay type: in vivo
In short: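 Age-unsynchronized populations of Ditylenchus destructor were maintained following a previously described protocol. Their motility was measured on the WMicrotracker ONE platform using previously published methods. The instrument scores the activity of small animals by counting how often infrared light microbeams passing through the wells of a microtiter plate are interrupted. Activity was recorded before treatment and during exposure to compounds.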

SMILES	average activity counts
FC(F)(F)Oc1ccc(-c2ccc3[nH]ccc3c2)cc1 [i-21]	227
CCCOc1ccc(-c2ccc3[nH]ccc3c2)cc1 [i-13]	204
CCCOc1cccc(-c2ccc3[nH]ccc3c2)c1 [i-12]	220
Clc1ccc(-c2ccc3[nH]ccc3c2)cc1 [i-19]	226
Fc1ccc(-c2ccc3[nH]ccc3c2)cc1 [i-20]	215

Same assay, conditions: 10 µM; 48 h

SMILES	average activity counts
FC(F)(F)Oc1ccc(-c2ccc3[nH]ccc3c2)cc1 [i-21]	220
CCCOc1ccc(-c2ccc3[nH]ccc3c2)cc1 [i-13]	200
CCCOc1cccc(-c2ccc3[nH]ccc3c2)c1 [i-12]	197
Clc1ccc(-c2ccc3[nH]ccc3c2)cc1 [i-19]	227
Fc1ccc(-c2ccc3[nH]ccc3c2)cc1 [i-20]	200

Same assay, conditions: 10 µM; 72 h

SMILES	average activity counts
FC(F)(F)Oc1ccc(-c2ccc3[nH]ccc3c2)cc1 [i-21]	183
CCCOc1ccc(-c2ccc3[nH]ccc3c2)cc1 [i-13]	207
CCCOc1cccc(-c2ccc3[nH]ccc3c2)c1 [i-12]	218
Clc1ccc(-c2ccc3[nH]ccc3c2)cc1 [i-19]	232
Fc1ccc(-c2ccc3[nH]ccc3c2)cc1 [i-20]	187

Same assay, conditions: 50 µM group; initial (prior to the treatment)

SMILES	average activity counts
FC(F)(F)Oc1ccc(-c2ccc3[nH]ccc3c2)cc1 [i-21]	223
CCCOc1ccc(-c2ccc3[nH]ccc3c2)cc1 [i-13]	221
CCCOc1cccc(-c2ccc3[nH]ccc3c2)c1 [i-12]	201
Clc1ccc(-c2ccc3[nH]ccc3c2)cc1 [i-19]	239
Fc1ccc(-c2ccc3[nH]ccc3c2)cc1 [i-20]	223

Same assay, conditions: 50 µM; 48 h

SMILES	average activity counts
FC(F)(F)Oc1ccc(-c2ccc3[nH]ccc3c2)cc1 [i-21]	172
CCCOc1ccc(-c2ccc3[nH]ccc3c2)cc1 [i-13]	211
CCCOc1cccc(-c2ccc3[nH]ccc3c2)c1 [i-12]	186
Clc1ccc(-c2ccc3[nH]ccc3c2)cc1 [i-19]	85
Fc1ccc(-c2ccc3[nH]ccc3c2)cc1 [i-20]	84

Same assay, conditions: 50 µM; 72 h

SMILES	average activity counts
FC(F)(F)Oc1ccc(-c2ccc3[nH]ccc3c2)cc1 [i-21]	139
CCCOc1ccc(-c2ccc3[nH]ccc3c2)cc1 [i-13]	219
CCCOc1cccc(-c2ccc3[nH]ccc3c2)c1 [i-12]	202
Clc1ccc(-c2ccc3[nH]ccc3c2)cc1 [i-19]	67
Fc1ccc(-c2ccc3[nH]ccc3c2)cc1 [i-20]	64

Same assay, conditions: 100 µM group; initial (prior to the treatment)

SMILES	average activity counts
FC(F)(F)Oc1ccc(-c2ccc3[nH]ccc3c2)cc1 [i-21]	221
CCCOc1ccc(-c2ccc3[nH]ccc3c2)cc1 [i-13]	239
CCCOc1cccc(-c2ccc3[nH]ccc3c2)c1 [i-12]	235
Clc1ccc(-c2ccc3[nH]ccc3c2)cc1 [i-19]	233
Fc1ccc(-c2ccc3[nH]ccc3c2)cc1 [i-20]	226

Same assay, conditions: 100 µM; 48 h

SMILES	average activity counts
FC(F)(F)Oc1ccc(-c2ccc3[nH]ccc3c2)cc1 [i-21]	158
CCCOc1ccc(-c2ccc3[nH]ccc3c2)cc1 [i-13]	211
CCCOc1cccc(-c2ccc3[nH]ccc3c2)c1 [i-12]	207
Clc1ccc(-c2ccc3[nH]ccc3c2)cc1 [i-19]	113
Fc1ccc(-c2ccc3[nH]ccc3c2)cc1 [i-20]	2

Same assay, conditions: 100 µM; 72 h

SMILES	average activity counts	decrease of mean activity counts
FC(F)(F)Oc1ccc(-c2ccc3[nH]ccc3c2)cc1 [i-21]	94	57%
CCCOc1ccc(-c2ccc3[nH]ccc3c2)cc1 [i-13]	228	–
CCCOc1cccc(-c2ccc3[nH]ccc3c2)c1 [i-12]	202	–
Clc1ccc(-c2ccc3[nH]ccc3c2)cc1 [i-19]	88	62%
Fc1ccc(-c2ccc3[nH]ccc3c2)cc1 [i-20]	2	99%

The compounds below were run on xL3 H. contortus (assay: Motility on WMicrotracker ONE). Conditions: 50 µM; 48 h.
Assay type: in vivo
Method: H. contortus L3 were obtained by culturing feces collected from experimentally infected sheep (located in the facilities of the Instituto de Ganadera de Montaa, Leon, Spain) in aerated and humidified closed containers, which were placed in a climatic chamber at 28 °C for 5 days. Larvae were recovered by immersing the feces in tap water for 5 h to stimulate migration. The suspension was then filtered through a 20 μm sieve. Subsequently, larvae were collected using a Baermann apparatus with a 30 μm mesh overnight at 23 °C. Exsheathment of L3 larvae was performed by incubating them in 0.1% (v/v) sodium hypochlorite for 1 h at room temperature on a rotator, followed by three washes with tap water to remove residual bleach.
The effect of compounds on motility of H. contortus, D. destructor, and H. schachtii was evaluated using the WMicrotracker ONE platform according to previously published protocols. ,
We mostly focused on the three derivatives containing a halogen substitution in the 4-position of the phenyl ring, namely, i-19, i-20, and i-21. An initial experiment was also conducted with a representative compound with an aliphatic chain, namely, i-12, in which we observed only a relatively small effect on the motility of larvae (approximately 30% decrease in motility of nematodes treated with 100 μM of the compound after 48 h in comparison to vehicle-treated worms; Figure S2.7). […] The effect was apparent starting at 3 h and beyond. At 48 h, the latest time point was tested, and the movement rates of nematodes exposed to 50 μM of i-19, i-20, and i-21 were reduced by 76%, 80%, and 82%, respectively.

SMILES	reduction of movement rates
FC(F)(F)Oc1ccc(-c2ccc3[nH]ccc3c2)cc1 [i-21]	82%
Clc1ccc(-c2ccc3[nH]ccc3c2)cc1 [i-19]	76%
Fc1ccc(-c2ccc3[nH]ccc3c2)cc1 [i-20]	80%

Same assay, conditions: 100 µM; 48 h

SMILES	decrease in motility in comparison to vehicle-treated worms
CCCOc1cccc(-c2ccc3[nH]ccc3c2)c1 [i-12]	approximately 30%

What follows are compounds tested on H. schachtii second-stage juveniles (J2) (assay: Nematicidal assay with NaOH agitation). Conditions: 50 µM; 48 h.
Assay type: in vivo, Heterodera schachtii
Excerpt: To assess the nematicidal effect of compounds on H. schachtii second-stage juveniles (J2), approximately 50 J2 in sterile double-distilled water were transferred into each well of a flat-bottom 96-well plate and exposed to the test compounds or vehicle alone (DMSO 0.2%).

SMILES	nematicidal effect after NaOH addition
Clc1ccc(-c2ccc3[nH]ccc3c2)cc1 [i-19]	immobilize worms rather than directly kill them
Fc1ccc(-c2ccc3[nH]ccc3c2)cc1 [i-20]	immobilize worms rather than directly kill them

The compounds below were run on Skin fibroblasts (BJ) (assay: Resazurin assay, 3-day treatment). Conditions: 10 µM; BJ.
Assay type: cell-based, human

SMILES	Average viability (signal intensity relative to control)
FC(F)(F)Oc1ccc(-c2ccc3[nH]ccc3c2)cc1 [i-21]	0.94 ± 0.02
CCCOc1ccc(-c2ccc3[nH]ccc3c2)cc1 [i-13]	0.97 ± 0.01
CCCOc1cccc(-c2ccc3[nH]ccc3c2)c1 [i-12]	0.96 ± 0.01
Clc1ccc(-c2ccc3[nH]ccc3c2)cc1 [i-19]	0.98 ± 0.02
Fc1ccc(-c2ccc3[nH]ccc3c2)cc1 [i-20]	0.96 ± 0.01

Same assay, conditions: 20 µM; BJ

SMILES	Average viability (signal intensity relative to control)
FC(F)(F)Oc1ccc(-c2ccc3[nH]ccc3c2)cc1 [i-21]	0.96 ± 0.04
CCCOc1ccc(-c2ccc3[nH]ccc3c2)cc1 [i-13]	1 ± 0.05
CCCOc1cccc(-c2ccc3[nH]ccc3c2)c1 [i-12]	1.04 ± 0.05
Clc1ccc(-c2ccc3[nH]ccc3c2)cc1 [i-19]	1.02 ± 0.06
Fc1ccc(-c2ccc3[nH]ccc3c2)cc1 [i-20]	0.98 ± 0.02

Same assay, conditions: 40 µM; BJ

SMILES	Average viability (signal intensity relative to control)
FC(F)(F)Oc1ccc(-c2ccc3[nH]ccc3c2)cc1 [i-21]	0.87 ± 0.03
CCCOc1ccc(-c2ccc3[nH]ccc3c2)cc1 [i-13]	0.98 ± 0.03
CCCOc1cccc(-c2ccc3[nH]ccc3c2)c1 [i-12]	0.96 ± 0.03
Clc1ccc(-c2ccc3[nH]ccc3c2)cc1 [i-19]	1 ± 0.03
Fc1ccc(-c2ccc3[nH]ccc3c2)cc1 [i-20]	0.96 ± 0.03

Same assay, conditions: up to 40 μM

SMILES	effect on the viability of fibroblasts
Clc1ccc(-c2ccc3[nH]ccc3c2)cc1 [i-19]	no effect

The compounds below were run on C. elegans (assay: DESI-MS detection of compound in nematodes). Conditions: not given.
Design: species or system Caenorhabditis elegans
Method: (§1) For in situ visualization of selected compounds, desorption electrospray ionization mass spectrometry imaging (DESI-MSI) was performed by using a Synapt G2-Si MS instrument coupled to a 2D-DESI source (Waters). The spray solvent (95% MeOH with 0.1% ammonia) was delivered at 2 μL/min and nebulized with […] ultrapure nitrogen on sample slides. The DESI source was optimized as follows: tip-to-surface distance: 1 mm; tip-to-inlet distance: 5 mm; incidence angle: 55°; collection angle: 10°; capillary voltage: 4 kV; cone voltage: […]; mass range: 100–600, with 16 000–17 000 full width at half-maximum (fwhm) mass resolution. Data were acquired in the negative mode using MassLynx software (v4.1, Waters, Milford, MA). Spectra, with a spatial resolution of 30 μm, were acquired every second. All acquired spectra were then recalibrated with the exact mass of the standard compounds and normalized based on root mean square (RMS) intensities. […] DESI-MS/MS was performed on the same sampling area with a 20 eV collision energy scanning of nematodes, and the acquired MS/MS spectra were summarized for the fragmentation ion assignment, and the correct molecular formulas were first calculated using MassLynx software (v4.1) and then identified by their masses acquired from the standard solution. […]

SMILES	DESI-MS signal of the compound in nematodes
CCCOc1ccc(-c2ccc3[nH]ccc3c2)cc1 [i-13]	able to detect signals
Clc1ccc(-c2ccc3[nH]ccc3c2)cc1 [i-19]	able to detect signals

Each compound was assayed on H. schachtii (assay: DESI-MS detection of compound in nematodes). Conditions: not given.
Design: species or system Heterodera schachtii
Method: as §1

SMILES	DESI-MS signal of the compound in nematodes
CCCOc1ccc(-c2ccc3[nH]ccc3c2)cc1 [i-13]	able to detect signals
Clc1ccc(-c2ccc3[nH]ccc3c2)cc1 [i-19]	able to detect signals

From publication PMC12766724, “Synthesis, Anthelmintic Activity, and Mechanism of Action of 5‑Aryl‑1H‑indoles” (Journal of Agricultural and Food Chemistry, 2025)
